Molecules are shown by their SMILES.

This assay concerns the target T1, KRAS G12C 1-169, his-tagged protein, GDP-loaded (Homo sapiens, UniProt P01116, G12C).
T1 construct: KRAS G12C 1-169, his-tagged protein, GDP-loaded; His tag
As to the kind of experiment: Biochemical assay: covalent modification of KRAS G12C, analysed by mass spectrometry (RapidFire/TOF or Q-Exactive). Further: time not given here. It is filed as binding. The following applies: Modification activity, modification percentage from MS peak intensities. In outline: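 GDP-loaded His-tagged KRAS G12C 1-169 (2 μM or 0.5 μM in 20 mM Hepes, 150 mM NaCl, 1 mM MgCl2) reacted with compound at 32 μM or 8 μM final (2% DMSO) for a set time, then quenched with formic acid. Percent covalent modification from deconvoluted intact-protein MS peak intensities (RapidFire/TOF or LC-Q Exactive).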
Turning to `C=C(C)C(=O)N1CC2(CCN(c3nc(N4CCOCC4)nc(-c4c(C)ccc5[nH]ncc45)c3C#N)C2)C1` [Compound I-192, 4-(2-methacryloyl-2,6-diazaspiro[3.4]octan-6-yl)-6-(5-methyl-1H-indazol-4-yl)-2-morpholinopyrimidine-5-carbonitrile], the Binding % result was “+ (+ indicates binding activity greater than 0% and up to 50%)”.

For `C=CC(=O)N1CC2(CCN(c3nc(N4CCC(N5CCN(C)[C@@H](C)C5)CC4)nc(-c4c(C)ccc5cnn(C)c45)c3C#N)C2)C1` [Compound I-193, 4-(2-acryloyl-2,6-diazaspiro[3.4]octan-6-yl)-6-(1,6-dimethyl-1H-indazol-7-yl)-2-(4-((S)-3,4-dimethylpiperazin-1-yl)piperidin-1-yl)pyrimidine-5-carbonitrile], the Binding % entry was “+++ (+++ indicates binding activity greater than 85%)”.

For the compound `C=CC(=O)N1CC2(CCN(c3nc(N4CCC(N5CCN(C)C6(CC6)C5)CC4)nc(-c4c(C)ccc5[nH]ncc45)c3C#N)C2)C1` [Compound I-194, 4-(2-acryloyl-2,6-diazaspiro[3.4]octan-6-yl)-6-(5-methyl-1H-indazol-4-yl)-2-(4-(4-methyl-4,7-diazaspiro[2.5]octan-7-yl)piperidin-1-yl)pyrimidine-5-carbonitrile], the Binding % result is “+++ (+++ indicates binding activity greater than 85%)”.

With `C=CC(=O)N1CC2(CCN(c3nc(C4CCOCC4)nc(-c4c(C)ccc5[nH]ncc45)c3C#N)C2)C1` [Compound I-196, 4-(2-acryloyl-2,6-diazaspiro[3.4]octan-6-yl)-6-(5-methyl-1H-indazol-4-yl)-2-(tetrahydro-2H-pyran-4-yl)pyrimidine-5-carbonitrile], the Binding % result was “++ (++ indicates binding activity from 50 to 85%)”. The value for `C=CC(=O)N1CC2(CCN(c3nc(N4CCC(N5CCN(C)C6(CC6)C5)CC4)nc(-c4c(C)ccc5cnn(C)c45)c3C#N)C2)C1` [Compound I-197, 4-(2-acryloyl-2,6-diazaspiro[3.4]octan-6-yl)-6-(1,6-dimethyl-1H-indazol-7-yl)-2-(4-(4-methyl-4,7-diazaspiro[2.5]octan-7-yl)piperidin-1-yl)pyrimidine-5-carbonitrile] was “+++ (+++ indicates binding activity greater than 85%)”; that for `C=CC(=O)N1CC2(CCN(c3nc(N4CCC(N5CCN(C)[C@H](C)C5)CC4)nc(-c4c(C)ccc5cnn(C)c45)c3C#N)C2)C1` [Compound I-198, 4-(2-acryloyl-2,6-diazaspiro[3.4]octan-6-yl)-6-(1,6-dimethyl-1H-indazol-7-yl)-2-(4-((R)-3,4-dimethylpiperazin-1-yl)piperidin-1-yl)pyrimidine-5-carbonitrile] was “+++ (+++ indicates binding activity greater than 85%)”; that for `C=CC(=O)N1CC2(CCN(c3c(OC[C@@H]4CCCN4C)ncc(-c4c(C)ccc5[nH]ncc45)c3C#N)C2)C1` [Compound I-199, 3-(2-acryloyl-2,6-diazaspiro[3.4]octan-6-yl)-5-(5-methyl-1H-indazol-4-yl)-2-(((S)-1-methylpyrrolidin-2-yl)methoxy)isonicoti-nonitrile] was “++ (++ indicates binding activity from 50 to 85%)”. Then `Cc1ccc2[nH]ncc2c1-c1nc(N2CCOCC2)nc(N2CCC3(CN(C(=O)/C=C/CN4CCC4)C3)C2)c1C#N` [Compound I-200, (E)-4-(2-(4-(azetidin-1-yl)but-2-enoyl)-2,6-diazaspiro[3.4]octan-6-yl)-6-(5-methyl-1H-indazol-4-yl)-2-morpholinopyrimidine-5-carbonitrile], with “++ (++ indicates binding activity from 50 to 85%)”.

Consider `C=CC(=O)N1CC2(CCN(c3nc(C(=O)N4CCOCC4)nc(-c4c(C)ccc5[nH]ncc45)c3C#N)C2)C1` [Compound I-201, 4-(2-acryloyl-2,6-diazaspiro[3.4]octan-6-yl)-6-(5-methyl-1H-indazol-4-yl)-2-(morpholine-4-carbonyl)pyrimidine-5-carbonitrile], for which the Binding % entry was “+ (+ indicates binding activity greater than 0% and up to 50%)”. Then `C=CC(=O)N1CC2(CCN(c3nc(C(N)=O)nc(-c4c(C)ccc5[nH]ncc45)c3C#N)C2)C1` [Compound I-202, 4-(2-acryloyl-2,6-diazaspiro[3.4]octan-6-yl)-5-cyano-6-(5-methyl-1H-indazol-4-yl)pyrimidine-2-carboxamide], with “+ (+ indicates binding activity greater than 0% and up to 50%)”. As for `C=CC(=O)N1CC2(CCN(c3nc(C(=O)N4CCN(C)CC4)nc(-c4c(C)ccc5[nH]ncc45)c3C#N)C2)C1` [Compound I-203, 4-(2-acryloyl-2,6-diazaspiro[3.4]octan-6-yl)-6-(5-methyl-1H-indazol-4-yl)-2-(4-methylpiperazine-1-carbonyl)pyrimidine-5-carbonitrile], the Binding % result was “+ (+ indicates binding activity greater than 0% and up to 50%)”.

In the case of `Cc1ccc2[nH]ncc2c1-c1nc(OC[C@@H]2CCCN2C)nc(N2CCC3(CN(C(=O)/C=C/CN(C)C)C3)C2)c1C#N` [Compound I-204, 4-(2-((E)-4-(dimethylamino)but-2-enoyl)-2,6-diazaspiro[3.4]octan-6-yl)-6-(5-methyl-1H-indazol-4-yl)-2-(((S)-1-methylpyrrolidin-2-yl)methoxy)pyrimidine-5-carbonitrile], the Binding % result is “+ (+ indicates binding activity greater than 0% and up to 50%)”. The value for `Cc1ccc2[nH]ncc2c1-c1nc(OC[C@@H]2CCCN2C)nc(N2CCC3(CN(C(=O)/C=C/CN4CCC4)C3)C2)c1C#N` [Compound I-205, 4-(2-((E)-4-(azetidin-1-yl)but-2-enoyl)-2,6-diazaspiro[3.4]octan-6-yl)-6-(5-methyl-1H-indazol-4-yl)-2-(((S)-1-methylpyrrolidin-2-yl)methoxy)pyrimidine-5-carbonitrile] was “+ (+ indicates binding activity greater than 0% and up to 50%)”; that for `C=CC(=O)N1CC2(CCN(c3nc(N4CCOCC4)nc(-c4c(C)ccc5[nH]nc(C6CC6)c45)c3C#N)C2)C1` [Compound I-206, 4-(2-acryloyl-2,6-diazaspiro[3.4]octan-6-yl)-6-(3-cyclopropyl-5-methyl-1H-indazol-4-yl)-2-morpholinopyrimidine-5-carbonitrile] was “+ (+ indicates binding activity greater than 0% and up to 50%)”.

For `C=CC(=O)N1CC2(CCN(c3cnc(-c4ccccc4)c(-c4c(C)ccc5[nH]ncc45)c3C#N)C2)C1` [Compound I-207, 5-(2-acryloyl-2,6-diazaspiro[3.4]octan-6-yl)-3-(5-methyl-1H-indazol-4-yl)-2-phenylisonicotinonitrile], the Binding % result is reported as “++ (++ indicates binding activity from 50 to 85%)”. Then `C=CC(=O)N1CC2(CCN(c3cnc(-c4ccccc4)c(-c4c(C)ccc5cnn(C)c45)c3C#N)C2)C1` [Compound I-208, 5-(2-acryloyl-2,6-diazaspiro[3.4]octan-6-yl)-3-(1,6-dimethyl-1H-indazol-7-yl)-2-phenylisonicotinonitrile], with “+ (+ indicates binding activity greater than 0% and up to 50%)”; and `C=CC(=O)N1CC2(CCN(c3nc(N4CCC[C@@H]4CO)nc(-c4c(C)ccc5[nH]ncc45)c3C#N)C2)C1` [Compound I-209, 4-(2-acryloyl-2,6-diazaspiro[3.4]octan-6-yl)-2-((R)-2-(hydroxymethyl)pyrro-lidin-1-yl)-6-(5-methyl-1H-indazol-4-yl)pyrimidine-5-carbonitrile], with “++ (++ indicates binding activity from 50 to 85%)”.

As to `C=CC(=O)N1CC2(CCN(c3nc(N4CCC[C@H]4CO)nc(-c4c(C)ccc5[nH]ncc45)c3C#N)C2)C1` [Compound I-210, 4-(2-acryloyl-2,6-diazaspiro[3.4]octan-6-yl)-2-((S)-2-(hydroxymethyl)pyrro-lidin-1-yl)-6-(5-methyl-1H-indazol-4-yl)pyrimidin-5-carbonitrile], the Binding % entry is “+ (+ indicates binding activity greater than 0% and up to 50%)”. Then `C=CC(=O)N1CC2(CCN(c3nc(N4CCC[C@H](CO)C4)nc(-c4c(C)ccc5[nH]ncc45)c3C#N)C2)C1` [Compound I-211, 4-(2-acryloyl-2,6-diazaspiro[3.4]octan-6-yl)-2-((S)-3-(hydroxymethyl)piperi-din-1-yl)-6-(5-methyl-1H-indazol-4-yl)pyrimidine-5-carbonitrile], with “++ (++ indicates binding activity from 50 to 85%)”; and `C=CC(=O)N1CC2(CCN(c3nc(N4CCC[C@@H](CO)C4)nc(-c4c(C)ccc5[nH]ncc45)c3C#N)C2)C1` [Compound I-212, 4-(2-acryloyl-2,6-diazaspiro[3.4]octan-6-yl)-2-((R)-3-(hydroxymethyl)piper-idin-1-yl)-6-(5-methyl-1H-indazol-4-yl)pyrimidine-5-carbontrile], with “++ (++ indicates binding activity from 50 to 85%)”; and `C=CC(=O)N1CC2(CCN(c3nc(N4CCC(CN(C)C)CC4)nc(-c4c(C)ccc5[nH]ncc45)c3C#N)C2)C1` [Compound I-213, 4-(2-acryloyl-2,6-diazaspiro[3.4]octan-6-yl)-2-(4-((dimethylamino)meth-yl)piperidin-1-yl)-6-(5-methyl-1H-indazol-4-yl)pyrimidine-5-carbontrile], with “+++ (+++ indicates binding activity greater than 85%)”. With `C=CC(=O)N1CC2(CCN(c3cnc(Oc4ccccc4)c(-c4c(C)ccc5[nH]ncc45)c3C#N)C2)C1` [Compound I-214, 5-(2-acryloyl-2,6-diazaspiro[3.4]octan-6-yl)-3-(5-methyl-1H-indazol-4-yl)-2-phenoxyisonicotinoni-trile], the Binding % entry is reported as “++ (++ indicates binding activity from 50 to 85%)”.

Consider `C=CC(=O)N1CC2(CCN(c3cnc(Oc4ccccc4)c(-c4c(C)ccc5cnn(C)c45)c3C#N)C2)C1` [Compound I-215, 5-(2-acryloyl-2,6-diazaspiro[3.4]octan-6-yl)-3-(1,6-dimethyl-1H-indazol-7-yl)-2-phenoxyisonicotinoni-trile], for which the Binding % result is “++ (++ indicates binding activity from 50 to 85%)”.

Source of the values: US12134620B2 (ARAXES PHARMA LLC, priority 2018, dated 2024).
